In patent US6818413B2, “Fluorescence-based high throughput screening assays for protein kinases and phosphatases” (Pharmacia and Upjohn Company, priority 1997, dated 2004):

Target: MBL Monoclonal anti-phosphotyrosine antibody (clone 6D12)
Test: Competitive displacement of P-Tyr-F from MBL antibody, fluorescence quenching
Type: binding
Conditions: displacement of P-Tyr-F 1.7 nM from MBL antibody 7.1 nM sites, nM sites (normality), read-out: MBL Monoclonal Kd, nM Φ
Description: FIGS. 5A and 5B: […] MBL antibody, 7.1 nM sites and P-Tyr-F, 1.7 nM were preincubated, and displacement initiated by the addition of a concentrated solution of phosphotyrosine. The increase in emission intensity and decrease in FP were monitored as a function of added phosphoryltyrosine. The data were analyzed as described in FIG. 3. FIGS. 7A, 7B, 7C, and 7D: FIGS. 7A, 7B, 7C, and 7D are graphs showing the competitive displacement of P-Tyr-F from MBL antibody by phosphorylated JAK-2 peptide substrates JAK-2(a) (FIGS. 7A and 7B) and JAK-2(b) (FIGS. 7C and 7D). All procedures were as described in FIG. 5. For both peptides, fixed antibody=7.1 nM sites and P-Tyr-F=1.7 nM. Antibody binding to the fluoresceinated phosphorylamino acids was monitored by adding successive small volumes of the antibody stock solution to a cuvette containing a fixed amount of fluoresceinated phosphorylamino acid in two milliliters of pH 7.4 buffer (25 mM Tris and 25 mM NaCl adjusted to pH 7.4 with HCl). The fluorescence polarization, anisotropy, and the intensity—the sum of vertically and horizontally polarized emissions—were recorded one minute after each addition. The dilution produced by the addition of the antibody necessitated a slight correction for both the concentrations and the intensity readings but not for the polarization since the latter is independent of the fluorophore concentration. […]

- Kd: 5.4 ± 0.5 nM
SMILES: NC(Cc1ccc(OP(=O)(O)O)cc1)C(=O)O (stereo not shown) [Phosphoryltyrosine]
